Assay results as given in patent US12036222B2, “Methods of treating cancers overexpressing CARM1 with EZH2 inhibitors and a PARP inhibitor” (The Wistar Institut of Anatomy and Biology, priority 2018, dated 2024).
“Also recorded” adds a separate entry of the source.

Key:
[1] = tested on: parental and CARM1 knockout A1847 cells, CARM1 high OVCAR10 cells; assay: Apoptosis markers (Annexin V, cleaved caspase 3, cleaved PARP); type: cell-based, human; details: 10 μM GSK126, 7 days; CARM1-dependent manner
Experimental: FIG. 37 illustrates control parental and CARM1 knockout A1847 cells were treated with 10 μM GSK126 or vehicle for 7 days. Percentage of Annexin V positive apoptotic cells was quantified. *p<0.001 and #p>0.05.
FIG. 38 illustrates levels of cleaved caspase 3 and cleaved PARP in control parental and CARM1 knockout A1847 cells treated with 10 μM GSK126 for 7 days. Expression of 3-actin was used as a loading control.
FIG. 39A illustrates the expression of apoptosis markers cleaved in CARM1 high OVCAR10 cells as a result of treatment with GSK126. CARM1 high OVCAR10 cells were treated with 10 μM GSK126 or vehicle control for 7 days. The expression of apoptosis markers cleaved caspase 3 and cleaved PARP were determined by immunoblot. Expression of β-actin was used as a loading control.
Phosphatidylserine externalization was detected using an Annexin V staining kit (Millipore) following the manufacturer's instructions. Annexin V-positive cells were detected using the Guava System and analyzed with the Guava Nexin software Module (Millipore).

DAB2, DLC1, and NOXA = assay: qRT-PCR of EZH2/BAF155 target genes in cells; type: cell-based, human; details: 10 μM GSK126
Experimental: FIG. 55 illustrates the relative expression of DAB2, DLC1, and NOXA in parental control and CARM1 knockout A1847 cells that were treated with 10 μM GSK126 or vehicle controls. mRNA expression of the indicated genes was determined by qRT-PCR. *p<0.002 compared with parental controls.
FIG. 56 illustrates the relative expression of DAB2, DLC1, and NOXA in CARM1 high OVCAR10 cells treated with 10 μM GSK126 or vehicle control for 7 days. Expression of the indicated BAF155/EZH2 target genes was determined by qRT-PCR. *p<0.001. Mean of three independent experiments with SEM.
RNA was isolated by RNeasy Mini Kit (Qiagen). mRNA relative expression for DAB2, DLC1, and PMAIP was determined using SYBR green 1-step iScript (Bio-Rad) with a Life Technologies QuantStudio 3. The primers were: 5′-[…]-3′ (DAB2 forward (SEQ ID NO: 2)) and 5′-[…]-3′ (DAB2 reverse (SEQ ID NO: 3)); 5′-[…]-3′ (DLC1 forward (SEQ ID NO: 4)) and 5′-[…]-3′ (DLC1 reverse (SEQ ID NO: 5)); 5′-[…]-3′ (NOXA forward (SEQ ID NO: 6)) and 5′-[…]-3′ (NOXA reverse (SEQ ID NO: 7)); and 5′-[…]-3′ (TIMP3 forward (SEQ ID NO: 8)) and 5′-[…]-3′ (TIMP3 reverse (SEQ ID NO: 9)).

[2] = tested on: promoter regions of the human DAB2, DLC1, and NOXA genes; assay: ChIP-qPCR at promoters of EZH2/BAF155 target genes; type: cell-based; details: A1847 cells
From the text: FIGS. 58 to 61 illustrate the results of a ChIP analysis using anti-EZH2 (FIG. 58), anti-H3K27Me3 (FIG. 59), anti-BAF155 (FIG. 60), or anti-RNA Pol II (FIG. 61) antibodies. An isotype matched IgG was used as a negative control. ChIP products were subjected to qPCR analysis using primers specific for the promoter regions of the human DAB2, DLC1, and NOXA genes. Data is representative of three independent experiments. * p<0.001 compared with IgG controls and #p<0.001 compared with parental controls.
ChIP was performed as described in Tu et al. Developmental Cell(2011) 21:1077-91. The following antibodies were used to perform ChIP: anti-H3K27Me3 (Cell Signaling, Cat. No: 9733), anti-BAF155 (Santa Cruz, Cat. No: sc-9746), anti-RNA polymerase II (Santa Cruz, Cat. No: sc-899) or anti-EZH2 (Cell Signaling, Cat. No: 5246). An isotype matched IgG was used as a negative control. ChIP DNA was analyzed by quantitative PCR against the promoter of the indicated genes using the following primers: DAB2 Forward: 5′-[…]-3′ (SEQ ID NO: 10) and DAB2 Reverse: 5′-[…]-3′ (SEQ ID NO: 11); DLC1 Forward: 5′-[…]-3′ (SEQ ID NO: 12) and DLC1 Reverse: 5′-[…]-3′ (SEQ ID NO: 13); NOXA Forward: 5′-[…]-3′ (SEQ ID NO: 14) and NOXA Reverse: 5′-[…]-3′ (SEQ ID NO: 15); TIMP3 Forward: 5′-[…]-3′ (SEQ ID NO: 16) and TIMP3 Reverse: 5′-[…]-3′ (SEQ ID NO: 17).

[3] = tested on: tumors formed by CARM1 knockout A1847 cells; assay: Subcutaneous xenograft model, CARM1 knockout A1847 cells; type: in vivo, NSG mice; details: 50 mg/kg daily i.p.
Experimental: The protocols were approved by the Institutional Animal Care and Use Committee (IACUC). 5×10^6 control A1847 or A1847 CARM1 knockout cells were unilaterally injected subcutaneously into 6-8-week old female immunocompromised NSG mice (n=5 per group). One week after injection the mice were randomized and treated with vehicle control (20% captisol) or GSK126 (50 mg/kg daily). Tumor size was measured every 3 days for 3 weeks. At end of the experiments, tumors were surgically dissected and tumor burden was calculated based on tumor weight.
EZH2 inhibitors, such as GSK126, are used safely in clinical trials for hematopoietic malignancies (Ribrag et al. Eur J Cancer (2014) 50:197). To determine the effects of EZH2 inhibition in vivo on the growth of CARM1-expressing ovarian tumors, two xenograft models were utilized. In the subcutaneous xenograft models, the injected CARM1-expressing A1847 cells were first allowed to grow for one week to establish the tumors. Mice were then randomized and treated daily with vehicle control or GSK126 (50 mg/kg) by intraperitioneal (i.p.) injection as reported (see, e.g., Bitler et al. Nature Medicine (2015) 21:231-8 and McCabe et al. Nature (2012) 492:108-12). […] To more closely mimic the tumor microenvironment, A1847 cells were orthotopically transplanted into the bursa covering the ovary of immunocompromised NSG mice. […]

NHEJ genes = assay: Expression of NHEJ genes; type: cell-based; details: CARM1 expressing cells
[4] = clinical trials for hematopoietic malignancies; cited from earlier work

CC[C@H](C)n1cc(C)c2c(C(=O)NCc3c(C)cc(C)[nH]c3=O)cc(-c3ccc(N4CCNCC4)nc3)cc21 [GSK126, (S)-1-(sec-butyl)-N-((4,6-dimethyl-2-oxo-1,2-dihydropyridin-3-yl)methyl)-3-methyl-6-(6-(piperazin-1-yl)pyridin-3-yl)-1H-indole-4-carboxamide]
markers of apoptosis [1]: induced
expression of identified EZH2/BAF155 target genes (DAB2, DLC1, NOXA) (DAB2, DLC1, and NOXA; A1847, OVCAR10 cells): upregulated
additivity of GSK126 treatment and CARM1 knockout on target gene expression (DAB2, DLC1, and NOXA; CARM1 knockout A1847 cells): did not appear to have additive effects
EZH2 association with target genes [2]: without affecting EZH2's association with its target genes
H3K27Me3 occupancy at target gene loci [2]: decreased H3K27Me3 occupancy
growth of tumors formed by CARM1 knockout A1847 cells [3]: failed to inhibit the growth
expression of NHEJ genes (NHEJ genes): restores the expression of NHEJ genes
safety in clinical trials [4]: used safely; also recorded: proven safe; also recorded: well-tolerated with limited toxicity
